# Experimental data reported in patent US12691143B2, “Method for treating cancer” (priority 2020, dated 2026).
# Columns and labels:
# [1] = test system: KE1 bladder cancer cell line (ERCC2-mutated derivative of KU19-19, NER-deficient); test: In vitro drug sensitivity assay (CellTiter-Glo); type: cell-based; details: NER-deficient KE1, compared with isogenic KU19-19; 48 to 72 hours
# Text: (§1) Bladder cancer cell lines were purchased from ATCC. The KE1 bladder cancer cell line is a derivative of KU19-19 in which an ERCC2 T484 mutation has been introduced by CRISPR/Cas9 gene editing as previously described (6). The MDA-MB-468 breast cancer cell line and its ERCC4-complemented derivative have been previously described (35). Small interfering RNAs (siRNAs) targeting specific NER genes as well as a non-targeting siRNA (siNTC) were purchased from Integrated DNA Technologies Inc. (Coralville, IA, USA; see Table 9 for sequences). Cells were seeded in 6-well plates and grown to 50% confluency. A transfection mixture containing siRNA diluted to a final concentration of 30 nM in Opti-MEM media containing Lipofectamine 3000 (Life Technologies; Carlsbad, CA) was then added to cells. After 48 hours, cells were trypsinized and re-aliquoted to separate wells and transfected with 15 nM siRNA for 24 hours immediately prior to viability assays performed as described below. […]
# (§2) Cells were seeded in either 96-well (5,000 cells/well) or 24-well (20,000 cells/well) plates. […] Plates were scanned using a luminescence microplate reader (BioTek). […]
# [2] = test system: SC14 (SW1710 derivative with ERCC2 P463L mutation); test: In vitro drug sensitivity assay; type: cell-based; details: ERCC2-mutant SC14 line compared with SW1710
# Text: as §1, §2
# [3] = test system: cisplatin-resistant MDA-MB-468 cell line; test: In vitro drug sensitivity assay in cisplatin-resistant derivative; type: cell-based; details: cisplatin-resistant vs parental MDA-MB-468
# Experimental: Cells were seeded in either 96-well (5,000 cells/well) or 24-well (20,000 cells/well) plates. The following day, irofulven and cisplatin stock solutions were serially diluted in media and added to cells. After 48 to 72 hours, media was removed and CellTiter-Glo® reagent (Promega; Madison, WI) was added. Plates were scanned using a luminescence microplate reader (BioTek). Survival at each drug concentration was plotted as a percentage of survival in drug-free media with error bars representing the standard deviation of at least three experiments.
# Platinum-based chemotherapy is a first-line treatment for numerous solid malignancies including bladder cancer, but platinum resistance frequently occurs and represents a challenging clinical problem. Although a variety of platinum resistance mechanisms have been characterized, restoration or upregulation of DNA repair is a common mechanism of resistance, particularly in HR-deficient breast and ovarian tumors^33. Mechanisms of platinum resistance in NER deficient tumors have not been characterized, and we wished to determine if acquired resistance to cisplatin would confer cross-resistance to irofulven through restoration of NER. To test this, we derived cisplatin resistance in the NER-deficient MDA-MB-468 cell line by gradual exposure to escalating doses of cisplatin (Methods).
# [4] = test system: muscle-invasive bladder cancer; test: Pathologic response to neoadjuvant cisplatin-based chemotherapy, DFCI/MSKCC cohort; type: in vivo, human; details: for complete response rate: all cases
# Text: (§3) To validate the ability of the NERDetect classifier to discriminate between ERCC2 mutant and WT bladder tumors, we analyzed WES data from three additional independent bladder cancer cohorts^53,0,31. The DFCI/MSK (n=50) and FCCC (n=48) cohorts are comprised of muscle-invasive bladder cancer patients who received neoadjuvant cisplatin-based chemotherapy followed by radical cystectomy, while the BGI cohort (n=98) included patients with MIBC or non-muscle-invasive bladder cancer.
# (§4) Patients in the DFCI/MSK and FCCC cohorts were treated with cisplatin-based chemotherapy followed by radical cystectomy, and cisplatin responders were defined as those that had no residual invasive disease on pathologic examination of the cystectomy specimen.
# (§5) Patients in the DFCI/MSK and Philadelphia cohorts were treated with cisplatin-based chemotherapy followed by radical cystectomy, and cisplatin responders were defined as patients with no residual invasive disease on pathologic examination of the cystectomy specimen.
# [5] = test system: muscle-invasive bladder cancer; test: Pathologic response to neoadjuvant cisplatin-based chemotherapy, Philadelphia (FCCC) cohort; type: in vivo, human
# Text: as §3, §4, §5
# [6] = test system: MDA-MB-468 breast cancer cell line (NER deficient, ERCC4 silenced); details: MDA-MB-468 with re-expression of WT ERCC4; previous work; cited from earlier work
# [7] = test system: muscle-invasive and metastatic urothelial cancer; details: cisplatin-based chemotherapy, first-line; cited from earlier work
smiles,measurement,setting,value
N.N.[Cl][Pt][Cl] [cisplatin],drug sensitivity (survival as percentage of drug-free media),[1],increased sensitivity
same,drug sensitivity,[2],significantly increased sensitivity
same,"cisplatin IC50, cisplatin resistant cell line relative to parental",[3],~ 3.5 fold
same,cisplatin responders,"[4]; WT ERCC2 patients, ERCC2mut score<0.70 (9 of 32)",28%
same,cisplatin responders,"[4]; WT ERCC2 patients, ERCC2mut score≥0.70 (seven of nine)",78%
same,cisplatin responders,"[4]; WT ERCC2 patients, NERDetect score<0.75 (10 of 31)",32%
same,cisplatin responders,"[4]; WT ERCC2 patients, NERDetect score≥0.75 (six of eight)",75%
same,cisplatin responders,[4]; all 41 WT ERCC2 cases (16),39%
same,complete response rate,[4]; ERCC2mut score<0.70 (10 of 33),30%
same,complete response rate,[4]; ERCC2mut signature score≥0.70 (15 of 17),88%
same,complete response rate,[4]; NERDetect score ≥0.75 (14 of 16),87%
same,complete response rate,[4]; NERDetect score<0.75 (11 of 34),32%
same,complete response rate,[5]; ERCC2mut score<0.70 (14 of 42),33%
same,complete response rate,[5]; ERCC2mut signature score≥0.70 (all six),100%
same,complete response rate,[5]; NERDetect score<0.75 (14 of 41),34%
same,complete response rate,[5]; NERDetect score≥0.75 (six of seven),86%
same,cisplatin sensitivity after re-expression of ERCC4,[6],could be rescued
same,patients with an initial response,[7],60-70%
